Measured values from PubChem BioAssay (NCI).
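Each compound was tested at five concentrations against cells in 96-well plates for 48 hours. TGI is the concentration that stops growth completely.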

Experiments:
Test in all cases: inhibition of tumour cell growth, NCI panel, 48 h
[1] = system: K-562 leukemia
[2] = system: RXF 393 renal
[3] = system: HCC-2998 colon
[4] = system: UACC-257 melanoma
[5] = system: MCF7 breast
[6] = system: NCI-H522 lung
[7] = system: 786-0 renal
[8] = system: NCI/ADR-RES ovarian
[9] = system: SR leukemia
[10] = system: UACC-62 melanoma
[11] = system: OVCAR-3 ovarian
[12] = system: SNB-19 CNS
[13] = system: OVCAR-5 ovarian
[14] = system: COLO 205 colon
[15] = system: U251 CNS
[16] = system: OVCAR-4 ovarian
[17] = system: DU-145 prostate
[18] = system: HCT-116 colon
[19] = system: UO-31 renal
[20] = system: HS 578T breast
[21] = system: NCI-H23 lung
[22] = system: KM12 colon
[23] = system: SK-MEL-5 melanoma
[24] = system: TK-10 renal
[25] = system: RPMI-8226 leukemia
[26] = system: SK-MEL-2 melanoma
[27] = system: A498 renal
[28] = system: CCRF-CEM leukemia
[29] = system: SK-OV-3 ovarian
[30] = system: SF-539 CNS
[31] = system: MOLT-4 leukemia
[32] = system: SF-268 CNS
[33] = system: SNB-75 CNS
[34] = system: A549 NSCLC
[35] = system: T-47D breast
[36] = system: HOP-92 NSCLC
[37] = system: ACHN renal
[38] = system: SK-MEL-28 melanoma
[39] = system: NCI-H460 lung
[40] = system: SF-295 CNS
[41] = system: NCI-H226 lung
[42] = system: LOX IMVI melanoma
[43] = system: EKVX NSCLC
[44] = system: MALME-3M melanoma
[45] = system: CAKI-1 renal
[46] = system: MDA-MB-435
[47] = system: SW-620 colon
[48] = system: PC-3 prostate
[49] = system: HL-60(TB) leukemia
[50] = system: OVCAR-8 ovarian
[51] = system: HT29 colon
[52] = system: M14 melanoma
[53] = system: HOP-62 NSCLC
[54] = system: IGROV1 ovarian
[55] = system: MDA-MB-231 breast
[56] = system: MDA-N
[57] = system: HCT-15 colon
[58] = system: SN12C renal

Measured: TGI

CCCNC(=S)N=Nc1c(O)[nH]c2ccccc12
> 100 µM: [1] | [2] | [3] | [4] | [5] | [6] | [7] | [8] | [9] | [10] | [11] | [12] | [13] | [14] | [15] | [16] | [17] | [18] | [19] | [20] | [21] | [22] | [23] | [24] | [25] | [26] | [27] | [28] | [29] | [30] | [31] | [32] | [33] | [34] | [35] | [36] | [37] | [38] | [39] | [40] | [41] | [42] | [43] | [44] | [45] | [46] | [47] | [48] | [49] | [50] | [51] | [52] | [53] | [54] | [55] | [56] | [57] | [58]

CSC(Cc1ccc2c(c1)Sc1ccccc1O2)=[N+]1CCOCC1
11.7 µM: [9]
> 100 µM: [1] | [2] | [3] | [4] | [5] | [7] | [8] | [10] | [11] | [12] | [13] | [14] | [15] | [16] | [17] | [18] | [19] | [21] | [22] | [24] | [25] | [26] | [27] | [29] | [30] | [31] | [32] | [33] | [34] | [35] | [36] | [37] | [38] | [39] | [40] | [41] | [42] | [43] | [45] | [46] | [47] | [48] | [49] | [50] | [51] | [52] | [53] | [54] | [55] | [56] | [57] | [58]
86.6 µM: [20]
90.9 µM: [44]
